The target in data set [1] is T1, Lymphocyte antigen 6K (Homo sapiens) (UniProt Q17RY6).
T1 sequence (whole entry): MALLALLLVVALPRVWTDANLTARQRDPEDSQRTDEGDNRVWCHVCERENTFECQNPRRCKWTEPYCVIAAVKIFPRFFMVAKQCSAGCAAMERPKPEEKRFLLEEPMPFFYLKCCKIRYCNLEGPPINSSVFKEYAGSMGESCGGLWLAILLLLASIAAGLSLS
The experiment in a line: Binding affinity to human wild type LY6K at 1.25 to 5 uM measured upto 250 sec by SPR assay. As to conditions: dose 1.25-5 µM. Background: In SPR one partner is held on a chip, and binding of the other changes the refractive index at the surface.

The next data set concerns the target T2, Lymphocyte antigen 6K (Homo sapiens, UniProt Q17RY6).
T2 sequence (Q17RY6 whole entry): T1 sequence (whole entry)
Description: Binding affinity to human wild type LY6K assessed as dissociation constant measured upto 250 sec by SPR assay.

For data set [2], the target named is T1, Lymphocyte antigen 6K (Homo sapiens). Description: Inhibition of LY6K in human Hs-578T cells assessed as reduction in cell viability measured after 48 hrs by Cell titer blue assay. In kind it is cell-based. As to conditions: dose 5-10 µM. A general note: Alamar Blue is a resazurin reagent that responds to reducing activity.
The test system of the next data set is Hs-578T. The experiment in a line: Antiproliferative activity against human Hs-578T cells transfected with LY6K-shRNA assessed as reduction in cell viability at 5 to 10 uM measured after 48 hrs by Cell titer blue assay. In kind it is functional, cell-based. To be noted: dose 5-10 µM.
Data set [3] can be described thus: Drug uptake in human Serum starved Hs-578T cells assessed as drug localization in perinuclear region of cell at 2 uM measured after 2 hrs by DAPI staining based confocal microscopy. In kind it is ADME.
The nature of data set [4]: Drug uptake in human Serum starved Hs-578T cells assessed as drug localization in cytoplasm of cell at 2 uM measured after 2 hrs by DAPI staining based confocal microscopy. The class given is ADME.
The nature of data set [5]: Drug uptake in human Serum starved Hs-578T cells assessed as drug localization in membrane of the cell at 2 uM measured after 2 hrs by DAPI staining based confocal microscopy. The class given is ADME.

The record followed here is ChEMBL document CHEMBL5223172, “Development of fluorophore labeled or biotinylated anticancer small molecule NSC243928” (Bioorg Med Chem, 2023).

Structures are written as SMILES. pKd: −log10 of the molar value. Activity calls are given as the source filed them. No cut-off for these calls is given here.

Usually pKd stands for −log10 of the Kd, conventionally taken in molar units.

Take `CCS(=O)(=O)Nc1ccc(Nc2c3ccccc3nc3cc(NC(=O)CCCC[C@@H]4SC[C@@H]5NC(=O)N[C@@H]54)ccc23)c(OC)c1`: the outcome in data set [1] was Active.

Regarding `CCS(=O)(=O)Nc1ccc(Nc2c3ccccc3nc3cc(C(=O)OCc4ccccc4)ccc23)c(OC)c1`, the result in data set [1] was Active.

On to `CCS(=O)(=O)Nc1ccc(Nc2c3ccccc3nc3ccccc23)c(OC)c1`, for which the Activity entry in data set [1] and in data set [2] was “Dose-Dependent Effect” each time. In addition, the pKd on Lymphocyte antigen 6K was 5.33. Also, the outcome in the data set with Hs-578T was inactive.

On to `CCS(=O)(=O)Nc1ccc(Nc2c3ccccc3nc3cc(C(=O)NCCCCCCNc4ccc([N+](=O)[O-])c5nonc45)ccc23)c(OC)c1`, for which the result in data set [1] was Active. Moreover, the Drug uptake entry in data set [3], in data set [4] and in data set [5] was “Active” each time. In data set [2], the Activity result is “Dose-Dependent Effect”. In addition, in the data set with Hs-578T, the outcome was inactive.

Regarding `CCS(=O)(=O)Nc1ccc(Nc2c3ccccc3nc3cc([N+](=O)[O-])ccc23)c(OC)c1`, the Activity entry in data set [1] is “Dose-Dependent Effect”.

Consider `CCS(=O)(=O)Nc1ccc(Nc2c3ccccc3nc3cc(C(=O)NCCOCCOCCOCCOCCOCCOCCOCCNC(=O)CCCC[C@@H]4SC[C@@H]5NC(=O)N[C@@H]54)ccc23)c(OC)c1`, for which the negative-log Kd (pKd) on Lymphocyte antigen 6K is 6.52. Further, the Activity entry in data set [2] was “Dose-Dependent Effect”. In addition, in the data set on Hs-578T, the outcome was inactive.
